Target: WDR5 (Homo sapiens, UniProt P61964)
Experiment: Competition-based fluorescence polarization anisotropy assay
Details: binding to WDR5; displacement of FITC-labeled small molecule probe (analogous to Example J2 or HCH-25) or peptide probe FITC-AHx-SEEEIDVVSV; pH 6.0; Ki converted from IC50
Description: Compounds of the present invention were assessed for their ability to bind to WDr5 using a competition-based fluorescence polarization anisotropy assay, similar to the method previously described. […] Fluorescence polarization measurements were performed in 384-well plates (Greiner Bio One) using a Cytation 3 plate reader (BioTek). Fluorescein isothiocyanate (FITC)-labeled peptide probe ([…]) was purchased from GenScript USA Inc and used without further purification. […] The assay buffer contained 200 mM phosphate, 300 mM NaCl, and 0.5 mM TCEP and 0.1% Chaps at pH 6.0. […] This was converted into a binding dissociation constant (Ki value) according to the formula: […] Data shown in the table below represents a K; determined from this method for each Example, using either a fluorescently labeled small molecule probe analogous to Example J2 or Example HCH-25, or the peptide probe described above, in the assay.

Compound | Ki [µM]
O=C(NC1CC(F)(F)C1)c1cc(Cl)cc(NS(=O)(=O)c2cc(Br)ccc2O)c1O [Example J38, 3-((5-Bromo-2-hydroxyphenyl)sulfonamido)-5-chloro-N-(3,3-difluorocyclobutyl)-2-hydroxybenzamide] | 0.4
O=C(NCC(F)F)c1cc(Cl)cc(NS(=O)(=O)c2cc(Br)ccc2O)c1O [Example J39, 3-((5-Bromo-2-hydroxyphenyl)sulfonamido)-5-chloro-N-(2,2-difluoroethyl)-2-hydroxybenzamide] | 0.79
CNC(=O)c1cc(Cl)cc(NS(=O)(=O)c2cc(Br)cc(Cl)c2O)c1O [Example J40, 3-((5-Bromo-3-chloro-2-hydroxyphenyl)sulfonamido)-5-chloro-2-hydroxy-N-methylbenzamide] | 0.24
O=C(NCCO)c1cc(Cl)cc(NS(=O)(=O)c2cc(Br)cc(Cl)c2O)c1O [Example J41, 3-((5-Bromo-3-chloro-2-hydroxyphenyl)sulfonamido)-5-chloro-2-hydroxy-N-(2-hydroxyethyl)benzamide] | 2.48
COCCNC(=O)c1cc(Cl)cc(NS(=O)(=O)c2cc(Br)cc(Cl)c2O)c1O [Example J42, 3-((5-Bromo-3-chloro-2-hydroxyphenyl)sulfonamido)-5-chloro-2-hydroxy-N-(2-methoxyethyl)benzamide] | 0.3
COc1ccc(Br)cc1S(=O)(=O)Nc1cc(Cl)cc(C(N)=O)c1O [Example J43, 3-((5-Bromo-2-methoxyphenyl)sulfonamido)-5-chloro-2-hydroxybenzamide] | 1.15
CNC(=O)c1cc(Cl)cc(NS(=O)(=O)c2cc(Br)ccc2OC)c1O [Example J44, 3-((5-Bromo-2-methoxyphenyl)sulfonamido)-5-chloro-2-hydroxy-N-methylbenzamide] | 1.26
COCCNC(=O)c1cc(Cl)cc(NS(=O)(=O)c2cc(Br)ccc2OC)c1O [Example J45, 3-((5-Bromo-2-methoxyphenyl)sulfonamido)-5-chloro-2-hydroxy-N-(2-methoxyethyl)benzamide] | 0.99
COc1ccc(Br)cc1S(=O)(=O)Nc1cc(Cl)cc(C(=O)N2CCOCC2)c1O [Example J48, 5-Bromo-N-(5-chloro-2-hydroxy-3-(morpholine-4-carbonyl)phenyl)-2-methoxybenzenesulfonamide] | 6.19
COc1ccc(Br)cc1S(=O)(=O)Nc1cc(Cl)cc(C(=O)N(C)C)c1O [Example J50, 3-((5-Bromo-2-methoxyphenyl)sulfonamido)-5-chloro-2-hydroxy-N,N-dimethylbenzamide] | 74.2
COCCCNC(=O)c1cc(Cl)cc(NS(=O)(=O)c2cc(Br)ccc2OC)c1O [Example J51, 3-((5-Bromo-2-methoxyphenyl)sulfonamido)-5-chloro-2-hydroxy-N-(3-methoxypropyl)benzamide] | 2.45
COc1ccc(Br)cc1S(=O)(=O)Nc1cc(Cl)cc(C(=O)NC2CCOCC2)c1O [Example J52, 3-((5-Bromo-2-methoxyphenyl)sulfonamido)-5-chloro-2-hydroxy-N-(tetrahydro-2H-pyran-4-yl)benzamide] | 3.95
COc1ccc(Br)cc1S(=O)(=O)Nc1cc(Cl)cc(C(=O)NCCCO)c1O [Example J53, 3-((5-Bromo-2-methoxyphenyl)sulfonamido)-5-chloro-2-hydroxy-N-(3-hydroxypropyl)benzamide] | 2.07
COc1ccc(Br)cc1S(=O)(=O)Nc1cc(Cl)cc(C(=O)N2CCC[C@H]2CO)c1O [Example J54, (S)-5-Bromo-N-(5-chloro-2-hydroxy-3-(2-(hydroxymethyl)pyrrolidine-1-carbonyl)phenyl)-2-methoxybenzenesulfonamide] | 6.84
COc1ccc(Br)cc1S(=O)(=O)Nc1cc(Cl)cc(C(=O)N2CCC[C@@H]2CO)c1O [Example J55, (R)-5-Bromo-N-(5-chloro-2-hydroxy-3-(2-(hydroxymethyl)pyrrolidine-1-carbonyl)phenyl)-2-methoxybenzenesulfonamide] | 8.17
COC[C@@H]1CCCN1C(=O)c1cc(Cl)cc(NS(=O)(=O)c2cc(Br)ccc2OC)c1O [Example J56, (S)-5-Bromo-N-(5-chloro-2-hydroxy-3-(2-(methoxymethyl)pyrrolidine-1-carbonyl)phenyl)-2-methoxybenzenesulfonamide] | 4.64
COC[C@H]1CCCN1C(=O)c1cc(Cl)cc(NS(=O)(=O)c2cc(Br)ccc2OC)c1O [Example J57, (R)-5-Bromo-N-(5-chloro-2-hydroxy-3-(2-(methoxymethyl)pyrrolidine-1-carbonyl)phenyl)-2-methoxybenzenesulfonamide] | 8.44
COCCN(C)C(=O)c1cc(Cl)cc(NS(=O)(=O)c2cc(Br)ccc2OC)c1O [Example J58, 3-((5-Bromo-2-methoxyphenyl)sulfonamido)-5-chloro-2-hydroxy-N-(2-methoxyethyl)-N-methylbenzamide] | 7.74

Compound | Ki [µM]
COc1ccc(Br)cc1S(=O)(=O)Nc1cc(Cl)cc(C(=O)NCCO)c1O [Example J59, 3-((5-Bromo-2-methoxyphenyl)sulfonamido)-5-chloro-2-hydroxy-N-(2-hydroxyethyl)benzamide] | 1.17
COc1ccc(Br)cc1S(=O)(=O)Nc1cc(Cl)cc(C(=O)NC2CCOC2)c1O (stereo not drawn) [Example J60, 3-((5-Bromo-2-methoxyphenyl)sulfonamido)-5-chloro-2-hydroxy-N-(tetrahydrofuran-3-yl)benzamide] | 0.94
COc1ccc(Br)cc1S(=O)(=O)Nc1cc(Cl)cc(C(=O)NCCN)c1O [Example J61, N-(2-Aminoethyl)-3-((5-bromo-2-methoxyphenyl)sulfonamido)-5-chloro-2-hydroxybenzamide] | 2.68
COc1ccc(Br)cc1S(=O)(=O)Nc1cc(Cl)cc(C(=O)N2CC(OC)C2)c1O [Example J62, 5-Bromo-N-(5-chloro-2-hydroxy-3-(3-methoxyazetidine-1-carbonyl)phenyl)-2-methoxybenzenesulfonamide] | 9.36
COc1ccc(Br)cc1S(=O)(=O)Nc1cc(Cl)cc(C(=O)N2CC(O)C2)c1O [Example J63, 5-Bromo-N-(5-chloro-2-hydroxy-3-(3-hydroxyazetidine-1-carbonyl)phenyl)-2-methoxybenzenesulfonamide] | 5.51
COc1ccc(Br)cc1S(=O)(=O)Nc1cc(Cl)cc(C(=O)N2CC(S(C)(=O)=O)C2)c1O [Example J64, 5-Bromo-N-(5-chloro-2-hydroxy-3-(3-(methylsulfonyl)azetidine-1-carbonyl)phenyl)-2-methoxybenzenesulfonamide] | 4.15
COc1ccc(Br)cc1S(=O)(=O)Nc1cc(Cl)cc(C(=O)NCC2CCCO2)c1O (stereo not drawn) [Example J65, 3-((5-Bromo-2-methoxyphenyl)sulfonamido)-5-chloro-2-hydroxy-N-((tetrahydrofuran-2-yl)methyl)benzamide] | 1.02
O=C(O)c1cc(Cl)cc(NS(=O)(=O)c2cc(Br)ccc2O)c1 [Example J66, 3-((5-Bromo-2-hydroxyphenyl)sulfonamido)-5-chlorobenzoic acid] | 3.51
O=C(Nc1nc[nH]n1)c1cc(Cl)cc(NS(=O)(=O)c2cc(Br)ccc2O)c1 [Example J67, 3-((5-Bromo-2-hydroxyphenyl)sulfonamido)-5-chloro-N-(1H-1,2,4-triazol-3-yl)benzamide] | 0.36
O=C(O)c1cc(C2CC2)cc(NS(=O)(=O)c2cc(Br)ccc2O)c1O [Example J68, 3-((5-Bromo-2-hydroxyphenyl)sulfonamido)-5-cyclopropyl-2-hydroxybenzoic acid] | 0.05
COc1ccc(Br)cc1S(=O)(=O)Nc1cc(C2CC2)cc(C(=O)O)c1O [Example J69, 3-((5-Bromo-2-methoxyphenyl)sulfonamido)-5-cyclopropyl-2-hydroxybenzoic acid] | 1.94
O=C(O)c1cc(C2CC2)cc(NS(=O)(=O)c2cc(Br)cc(Cl)c2O)c1O [Example J70, 3-((5-Bromo-3-chloro-2-hydroxyphenyl)sulfonamido)-5-cyclopropyl-2-hydroxybenzoic acid] | 0.13
COc1cc(Cl)c(Br)cc1S(=O)(=O)Nc1cc(C2CC2)cc(C(=O)O)c1O [Example J71, 3-((5-Bromo-4-chloro-2-methoxyphenyl)sulfonamido)-5-cyclopropyl-2-hydroxybenzoic acid] | 2.72
COc1cc(F)c(Br)cc1S(=O)(=O)Nc1cc(C2CC2)cc(C(=O)O)c1O [Example J72, 3-((5-Bromo-4-fluoro-2-methoxyphenyl)sulfonamido)-5-cyclopropyl-2-hydroxybenzoic acid] | 1.11
O=C(O)c1cc(C2CC2)cc(NS(=O)(=O)c2cc(Br)ccc2NC2CC2)c1O [Example J73, 3-((5-Bromo-2-(cyclopropylamino)phenyl)sulfonamido)-5-cyclopropyl-2-hydroxybenzoic acid] | 5.98
CC(C)CNc1ccc(Br)cc1S(=O)(=O)Nc1cc(C2CC2)cc(C(=O)O)c1O [Example J74, 3-((5-Bromo-2-(isobutylamino)phenyl)sulfonamido)-5-cyclopropyl-2-hydroxybenzoic acid] | 3.93
CC(C)[C@@H](C)Nc1ccc(Br)cc1S(=O)(=O)Nc1cc(C2CC2)cc(C(=O)O)c1O [Example J75, (R)-3-((5-Bromo-2-((3-methylbutan-2-yl)amino)phenyl)sulfonamido)-5-cyclopropyl-2-hydroxybenzoic acid] | 5.17
CC(C)[C@H](C)Nc1ccc(Br)cc1S(=O)(=O)Nc1cc(C2CC2)cc(C(=O)O)c1O [Example J76, (S)-3-((5-Bromo-2-((3-methylbutan-2-yl)amino)phenyl)sulfonamido)-5-cyclopropyl-2-hydroxybenzoic acid] | 3.24

— patent US12398097B2, “WDR5-MYC inhibitors” (Vanderbilt University, priority 2019, dated 2025)
